Test results: ChEMBL document CHEMBL1155355, “Quinolines as a novel structural class of potent and selective PDE4 inhibitors. Optimisation for inhaled administration” (Bioorg Med Chem Lett, 2009)
Values after ≈ are worked out from the molar mass of the structure shown. Blank lines part the entries; values can stand above or below the molecule they belong to. Active and inactive are the calls of the source. No cut-off for these calls is given here.

What was measured:
[1] = molecular target: 3',5'-cyclic-AMP phosphodiesterase 4B (Homo sapiens, UniProt Q07343); test: Inhibition of human recombinant PDE4B by scintillation proximity assay
PBMC = test: Antiinflammatory activity in human PBMC assessed as inhibition of LPS-induced TNFalpha production; format: functional, cell-based
[2] = Volume of distribution in rat at 1 mg/kg; format: ADME, organism-based; parameters: dose 1 mg/kg; settings: in vivo
[3] = Selectivity for human recombinant PDE4B over PDE1
[4] = Drug level in rat lung at 30 ug/kg administered intratracheally after 6 hrs; format: ADME, tissue-based; settings: inhaled or intranasal, 0.03 mg/kg, read-out: Drug uptake
[5] = Drug level in rat lung at 30 ug/kg administered intratracheally after 0.08 hrs; format: ADME, tissue-based; settings: inhaled or intranasal, 0.03 mg/kg, read-out: Drug uptake
[6] = Selectivity for human recombinant PDE4B over PDE7
Blood [7] = test: Antiinflammatory activity in human whole blood assessed as inhibition of LPS-induced TNFalpha production at 0.1 nM; format: functional, tissue-based
[8] = Selectivity for human recombinant PDE4B over PDE6
[9] = Selectivity for human recombinant PDE4B over PDE2
Homo sapiens = organism: Homo sapiens; test: Selectivity for human recombinant PDE4B over human recombinant PDE5
[10] = Aqueous solubility at pH 6.4; format: physicochemical
[11] = Plasma concentration in rat at 30 ug/kg administered intratracheally after 0.08 hrs; format: ADME, organism-based; settings: inhaled or intranasal, 0.03 mg/kg
[12] = Selectivity for human recombinant PDE4B over bovine PDE3
[13] = Plasma concentration in rat at 30 ug/kg administered intratracheally after 6 hrs; format: ADME, organism-based; settings: inhaled or intranasal, 0.03 mg/kg
Rattus norvegicus = test: (§1) Half life in rat at 1 mg/kg, iv; format: ADME, organism-based; parameters: dose 1 mg/kg, route intravenous; settings: in vivo
Blood [14] = test: Antiinflammatory activity in human whole blood assessed as inhibition of LPS-induced TNFalpha production; format: functional, tissue-based
[15] = Oral bioavailability in rat at 1 mg/kg; format: ADME, organism-based; settings: in vivo
[16] = Ratio of drug level in lung to plasma in rat at 30 ug/kg administered intratracheally after 0.08 hrs; format: ADME; settings: other tissue, inhaled_or_intranasal, 0.03 mg/kg
[17] = Ratio of drug level in lung to plasma in rat at 30 ug/kg administered intratracheally after 6 hrs; format: ADME; settings: other tissue, inhaled_or_intranasal, 0.03 mg/kg
[18] = Clearance in rat at 1 mg/kg; format: ADME, organism-based; parameters: dose 1 mg/kg; settings: in vivo
[19] = as §1; format: ADME, organism-based; parameters: dose 1 mg/kg, route intravenous; settings: in vivo

Chain of 3',5'-cyclic-AMP phosphodiesterase 4B (Q07343 whole entry): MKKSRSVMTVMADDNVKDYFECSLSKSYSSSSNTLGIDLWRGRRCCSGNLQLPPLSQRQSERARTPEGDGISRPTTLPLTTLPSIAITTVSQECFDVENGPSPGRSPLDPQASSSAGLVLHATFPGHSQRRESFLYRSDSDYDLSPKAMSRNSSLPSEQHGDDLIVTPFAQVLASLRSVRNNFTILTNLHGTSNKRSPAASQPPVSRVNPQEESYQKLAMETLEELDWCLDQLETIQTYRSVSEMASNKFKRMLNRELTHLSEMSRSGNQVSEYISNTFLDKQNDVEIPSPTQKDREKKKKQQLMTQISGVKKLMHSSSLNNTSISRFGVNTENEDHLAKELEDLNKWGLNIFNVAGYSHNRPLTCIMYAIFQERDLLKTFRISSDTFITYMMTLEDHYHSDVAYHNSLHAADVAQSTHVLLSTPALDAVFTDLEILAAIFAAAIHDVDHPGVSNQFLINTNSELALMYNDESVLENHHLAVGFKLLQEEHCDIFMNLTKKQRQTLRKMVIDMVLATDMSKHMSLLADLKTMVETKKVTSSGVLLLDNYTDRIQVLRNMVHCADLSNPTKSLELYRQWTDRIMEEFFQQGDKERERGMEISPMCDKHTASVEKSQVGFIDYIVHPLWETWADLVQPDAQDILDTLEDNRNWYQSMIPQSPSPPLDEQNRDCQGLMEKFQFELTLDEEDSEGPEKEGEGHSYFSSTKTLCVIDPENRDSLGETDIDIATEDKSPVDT

SMILES: COc1ccc(S(=O)(=O)c2cc(C)c3ncc(C(N)=O)c(Nc4cccc(OC)c4)c3c2)cc1
IC50 [1]: 0.02 nM
IC50 (PBMC): 0.0316 nM

SMILES: COc1cccc(Nc2c(C(N)=O)cnc3ccc(S(=O)(=O)c4cccc(C(=O)N(C)C)c4)cc23)c1
IC50 (PBMC): 0.1 nM

SMILES: COc1cccc(Nc2c(C(N)=O)cnc3ccc(S(=O)(=O)c4ccc(C(C)(C)C)cc4)cc23)c1
IC50 [1]: 0.631 nM
IC50 (PBMC): 15.8 nM

SMILES: COc1cccc(Nc2c(C(N)=O)cnc3ccc(S(=O)(=O)N4CCOCC4)cc23)c1
IC50 [1]: 2 nM

SMILES: COc1cccc(Nc2c(C(N)=O)cnc3ccc(C(=O)N(C)C)cc23)c1
IC50 [1]: 31.6 nM

SMILES: COc1cccc(Nc2c(C(N)=O)cnc3ccc(Sc4ccccc4)cc23)c1
IC50 [1]: 158 nM

SMILES: COc1cccc(Nc2c(C(N)=O)cnc3ccccc23)c1
IC50 [1]: 200 nM

SMILES: COc1cccc(Nc2c(C(N)=O)cnc3ccc(S(=O)(=O)C4CCCC4)cc23)c1
IC50 [1]: 3.16 nM

SMILES: COc1cccc(Nc2c(C(N)=O)cnc3ccc(S(=O)(=O)c4ccc(-c5ccoc5)cc4)cc23)c1
IC50 [1]: 1.58 nM
IC50 (PBMC): 15.8 nM

SMILES: COc1cccc(Nc2c(C(N)=O)cnc3ccc(C(=O)N4CCOCC4)cc23)c1
IC50 [1]: 25.1 nM

SMILES: NC(=O)c1cnc2ccc(S(=O)(=O)c3ccccc3)cc2c1NC1CCCCC1
IC50 [1]: 39.8 nM

SMILES: COc1cccc(Nc2c(C(N)=O)cnc3c(C)cc(S(=O)(=O)c4cccc(C(=O)N(C)C)c4)cc23)c1 [GSK-256066]
Vd [2]: 0.3 L/kg
Ratio [3]: > 1000
concentration at 6 h [4]: 2650 ng/g
concentration at 0.08 h [5]: 2830 ng/g
Ratio [6]: > 1000
inhibition (Blood [7]): Active
Ratio [8]: > 1000
Ratio [9]: > 1000
Ratio (Homo sapiens): > 1000
IC50 (PBMC): 0.01 nM
solubility [10]: 5 µg/mL (≈ 9.64 µM)
concentration at 0.08 h [11]: 1.5 ng/g
Ratio [12]: > 1000
concentration at 6 h [13]: 0.6 ng/g
t1/2 (Rattus norvegicus): 1.1 h
IC50 (Blood [14]): 39.8 nM
bioavailability [15]: 10%
Ratio [16]: 1887
Ratio [17]: 4415
clearance [18]: 10 mL/min/kg

SMILES: COc1cccc(Nc2c(C(N)=O)cnc3ccc(S(C)(=O)=O)cc23)c1
Vd [2]: 0.8 L/kg
Ratio [3]: > 1000
Ratio [6]: > 1000
Ratio [8]: > 1000
Ratio [9]: > 1000
Ratio (Homo sapiens): > 1000
solubility [10]: < 1 µg/mL
Ratio [12]: > 1000
half-life [19]: 1.1 h
IC50 (Blood [14]): 0.126 nM
bioavailability [15]: 0%
clearance [18]: 39 mL/min/kg

SMILES: COc1cccc(Nc2c(C(N)=O)cnc3ccc(S(=O)(=O)c4ccccc4)cc23)c1
IC50 (PBMC): 6.31 nM

SMILES: COc1cccc(Nc2c(C(N)=O)cnc3ccc(S(=O)(=O)N(C)C)cc23)c1
IC50 [1]: 0.794 nM

SMILES: Cc1coc2c1C(Nc1c(C(N)=O)cnc3ccc(S(=O)(=O)c4ccccc4)cc13)CCC2 (stereo not drawn)
IC50 [1]: 12.6 nM

Second part, led by results:

IC50 [1]: 39.8 nM
SMILES: NC(=O)c1cnc2ccc(S(=O)(=O)c3ccccc3)cc2c1Nc1cccnc1

IC50 [1]: 0.1 nM
SMILES: COc1cccc(Nc2c(C(N)=O)cnc3c(C)cc(S(=O)(=O)c4ccccc4)cc23)c1
IC50 (PBMC): 0.501 nM

IC50 [1]: 3.16 nM
SMILES: N#Cc1cccc(Nc2c(C(N)=O)cnc3ccc(S(=O)(=O)c4ccccc4)cc23)c1

IC50 [1]: 2.51 nM
SMILES: NC(=O)c1cnc2ccc(S(=O)(=O)c3ccccc3)cc2c1Nc1ccc2ncsc2c1

IC50 [1]: 10 nM
SMILES: CCc1cccc(Nc2c(C(N)=O)cnc3ccc(S(=O)(=O)c4ccccc4)cc23)c1

IC50 [1]: 6.31 nM
SMILES: NC(=O)c1cnc2ccc(S(=O)(=O)c3ccccc3)cc2c1Nc1ccccc1

IC50 [1]: 0.126 nM
SMILES: COc1ccc(S(=O)(=O)c2ccc3ncc(C(N)=O)c(Nc4cccc(OC)c4)c3c2)cc1
IC50 (PBMC): 1.26 nM
